In PMC10689823, “Discovery of a Drug-like, Natural Product-Inspired DCAF11 Ligand Chemotype” (Nature Communications, 2023):
“And” between values parts separate entries of the source, which are not always exact repeats. Identical values can stand only once.

Columns and labels:
Type in all cases: cell-based
Jurkat cells = assay: Cell viability assay (CellTiter-Glo) in Jurkat cells; conditions: for GI50: Homo sapiens; for GI50 / Relative cell viability (%): Jurkat cells, 72 h; for Relative cell viability (%): Fig. 4k; for Cell viability (%) relative to DMSO: individual replicates, Supplementary Fig. 7g
How it was run: (§1)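 Jurkat and Hep G2 cells were exposed to compounds for 72 h, with an untreated plate counted at time zero. Viability was read as CellTiter-Glo luminescence after 10 min reagent incubation at room temperature.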

[1] = as above; conditions: human, Jurkat cells; for viability at 72 h, 10 nmol/L: concentration 10 nmol/L; for viability at 72 h, 30 nmol/L: concentration 30 nmol/L; for viability at 72 h, 100 nmol/L: concentration 100 nmol/L; for viability at 72 h, 1000 nmol/L: concentration 1000 nmol/L; for viability at 72 h, 3000 nmol/L: concentration 3000 nmol/L; for viability at 72 h, 0.01 µM: 10 nM; for viability at 72 h, 0.03 µM: 30 nM; for viability at 72 h, 0.1 µM: 100 nM; for viability at 72 h, 0.3 µM: 300 nM; for viability at 72 h, 1 µM: 1000 nM
How it was run: as §1

BRD2 [2] = target: BRD2 (Homo sapiens, UniProt P25440); assay: BRD2 levels by Western blot in Jurkat cells; set-up: endogenous in cells; host or cells: Jurkat; Hep G2; MDA-MB-231; KBM7 (WT, DCAF11 KO, DDB1 KO); Dmax: dose or concentration left out as unconfirmed; conditions: for degradation of BRD2: 3 µM, 6 h treatment
Description: (§2) Cells were washed with PBS and lysed in lysis buffer (50 mM Tris-HCl, pH 7.4, 150 mM NaCl, 1% Triton X-100, 1% sodium deoxycholate, 0.1% SDS) with complete protease inhibitor cocktail (Roche, 11836170001) for 30 min on ice. For Ramos cells, cell pellets were lysed in lysis buffer (50 mM Tris-HCl, pH 8, 150 mM NaCl, 1% NP-40, 0.5% sodium deoxycholate) with complete protease inhibitor cocktail. After centrifugation at 16,000 x g, the supernatant was transferred into a new tube and the protein concentration was determined by DC protein assay (BIO-RAD, 5000116). Proteins were separated by SDS-PAGE and transferred to a PVDF membrane (Thermo scientific, 0.45 μm, 88518). For PDEδ, BRD2, GAPDH, BRD4, Vinculin and BTK, the membranes were blocked with Intercept® Blocking Buffer (LI-COR Biosciences, 927-70001) at room temperature for 1 h. The primary antibodies for these proteins were diluted with Intercept® Blocking Buffer (1:500 for PDEδ, 1:3000 for Vinculin, and 1:1000 for other proteins) and incubated with the membranes overnight at 4 °C. Membranes were washed with PBS + 0.1% Tween 20 (PBS-T) five times and incubated with secondary antibodies conjugated to IRDye® Infrared Fluorescent Dyes (1:5000, LI-COR Biosciences) at room temperature for 1 h with protection from light. After washing the membrane, signals were visualized using the ChemiDoc MP Imaging System (BIO-RAD Laboratories). For detection of LC3B, BRD3, BLK, DCAF11, DDB1 RBX1, FIP200, V5- and FLAG-Tag the membranes were blocked with 5% milk in PBS-T at room temperature for 1 h. The primary antibodies for these proteins were diluted in 5% milk in PBS-T buffer (1:200 for BRD3, 1:1000 for other proteins) and incubated with the membranes overnight at 4 °C. Membranes were washed with PBS-T five times and incubated with HRP secondary antibodies (1:1500) at room temperature for 1 h. After washing the membrane, protein detection was performed using Western blotting detection reagent (Thermo Scientific, 34095) and the ChemiDoc MP Imaging System (BIO-RAD). Relative band intensities were quantified using Image Lab (BIO-RAD).

BRD2 [3] = assay: In-Cell Western for BRD2 levels in Hep G2 cells
How it was run: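 Hep G2 cells were treated with compound for the indicated time and concentration. After fixation and permeabilisation, BRD2 was immunostained and read by near-infrared imaging. BRD2 signal was normalised to vinculin.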

BRD4 = target: T1, BRD4 (Homo sapiens, UniProt O60885); assay: BRD4 levels by Western blot in Jurkat cells; conditions: for degradation of BRD4: 3 µM, 6 h treatment
T1 construct: endogenous in cells; host or cells: Jurkat
Description: as §2

BRD4(S)-BFP = target: T2, BRD4(S)-BFP (Homo sapiens, UniProt O60885); assay: Flow cytometry-based BRD4 reporter assay (DCAF11 knockout/rescue); conditions: 6 h, 10 at 5 µM, 9 at 1 µM, dBET6 at 0.5 µM, DMSO = 1
T2 construct: BRD4 short isoform (amino acids 1-719; Twist Bioscience); V5; P2A-mCherry (mCherry split off by P2A self-cleavage) (C, cleaved yes); expressed in transfected cells; host or cells: KBM7 iCas9 cells, lentiviral SFFV-BRD4(S)-mTagBFP-P2A-mCherry
Description: Stable BRD4(S)-BFP reporter KBM7 iCas9 cell line was generated as previously described. […] Cells were subsequently washed, resuspended in FACS buffer and analyzed on LSRFortessa (BD Biosciences). Flow cytometry data was analyzed in FlowJo (v10.8.1). BFP and mCherry mean fluorescence intensity (MFI) values for were normalized by background subtraction of the respective values from reporter negative KBM7 wild type cells.

BRD3 = target: T3, BRD3 (Homo sapiens, UniProt Q15059); assay: BRD3 levels by Western blot in Jurkat cells; conditions: for degradation of BRD3: 3 µM, 6 h treatment
T3 construct: endogenous in cells; host or cells: Jurkat
Description: as §2

[4] = individual replicates, Supplementary Fig. 7g, read-out: Cell viability (%) relative to DMSO
[5] = 72 h, Fig. 4k, read-out: Relative cell viability (%)
[6] = KBM7 iCas9 BRD4(S)-BFP reporter cells, WT
[7] = reporter cells, DCAF11 KO + WT cDNA

T3 sequence (Q15059 whole entry): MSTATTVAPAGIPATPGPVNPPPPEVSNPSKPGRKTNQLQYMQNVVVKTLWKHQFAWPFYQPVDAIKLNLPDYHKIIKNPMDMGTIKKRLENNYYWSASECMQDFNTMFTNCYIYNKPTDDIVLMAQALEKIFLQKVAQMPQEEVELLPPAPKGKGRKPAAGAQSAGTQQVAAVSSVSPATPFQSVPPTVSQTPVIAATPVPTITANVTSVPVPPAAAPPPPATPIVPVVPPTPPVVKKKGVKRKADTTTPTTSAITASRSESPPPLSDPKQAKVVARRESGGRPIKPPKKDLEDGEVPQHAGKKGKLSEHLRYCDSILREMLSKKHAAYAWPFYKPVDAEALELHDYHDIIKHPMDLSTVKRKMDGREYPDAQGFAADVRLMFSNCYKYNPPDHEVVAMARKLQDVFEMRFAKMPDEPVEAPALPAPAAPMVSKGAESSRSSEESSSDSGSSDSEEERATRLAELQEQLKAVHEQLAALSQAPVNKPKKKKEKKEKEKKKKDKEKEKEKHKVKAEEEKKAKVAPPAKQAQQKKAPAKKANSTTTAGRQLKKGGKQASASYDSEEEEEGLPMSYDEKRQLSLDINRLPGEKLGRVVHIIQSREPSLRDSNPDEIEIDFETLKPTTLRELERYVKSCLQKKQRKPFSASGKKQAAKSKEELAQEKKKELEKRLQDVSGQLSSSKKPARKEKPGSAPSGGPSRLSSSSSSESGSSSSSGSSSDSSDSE
Chain of BRD2 (Homo sapiens, UniProt P25440) (P25440 whole entry): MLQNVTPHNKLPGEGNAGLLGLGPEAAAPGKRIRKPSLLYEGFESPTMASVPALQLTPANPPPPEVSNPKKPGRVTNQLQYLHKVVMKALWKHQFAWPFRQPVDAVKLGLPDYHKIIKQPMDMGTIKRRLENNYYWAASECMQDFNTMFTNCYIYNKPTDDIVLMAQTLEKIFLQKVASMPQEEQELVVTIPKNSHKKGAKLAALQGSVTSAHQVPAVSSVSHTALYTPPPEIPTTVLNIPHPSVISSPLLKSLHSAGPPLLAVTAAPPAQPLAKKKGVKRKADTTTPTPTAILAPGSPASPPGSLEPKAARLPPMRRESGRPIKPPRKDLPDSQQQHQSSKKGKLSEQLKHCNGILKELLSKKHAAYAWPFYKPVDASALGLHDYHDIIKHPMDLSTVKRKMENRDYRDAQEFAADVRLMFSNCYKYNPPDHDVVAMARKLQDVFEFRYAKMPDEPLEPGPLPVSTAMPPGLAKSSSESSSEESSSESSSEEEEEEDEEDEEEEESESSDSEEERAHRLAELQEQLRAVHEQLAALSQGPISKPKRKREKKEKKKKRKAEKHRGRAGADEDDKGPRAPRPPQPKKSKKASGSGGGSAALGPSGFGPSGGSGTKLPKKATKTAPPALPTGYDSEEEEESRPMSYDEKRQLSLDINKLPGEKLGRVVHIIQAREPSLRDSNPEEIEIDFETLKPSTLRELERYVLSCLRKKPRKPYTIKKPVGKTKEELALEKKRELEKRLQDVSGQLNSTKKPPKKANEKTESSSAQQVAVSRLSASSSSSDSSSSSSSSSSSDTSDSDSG

Compound: O=C1Nc2ccc(Br)cc2C1=Cc1cc(Br)c(O)c(Br)c1 [Compound 2]
- GI50 (Jurkat cells): > 30000 nM
- Relative cell viability (%) (Jurkat cells; 10 nM, 0.01 µM): 109.397% and 95.8659%
- Relative cell viability (%) (Jurkat cells; 30 nM, 0.03 µM): 109.179% and 98.227%
- Relative cell viability (%) (Jurkat cells; 100 nM, 0.1 µM): 109.452% and 110.948%
- Relative cell viability (%) (Jurkat cells; 300 nM, 0.3 µM): 108.619% and 101.195%
- Relative cell viability (%) (Jurkat cells; 1000 nM, 1 µM): 100.635% and 106.748%
- Relative cell viability (%) (Jurkat cells; 3000 nM, 3 µM): 102.832% and 100.062%
- Relative cell viability (%) (Jurkat cells; 10000 nM, 10 µM): 99.6522% and 88.024%
- Relative cell viability (%) (Jurkat cells; 30000 nM, 30 µM): 74.0357% and 70.3951%
- Cell viability (%) relative to DMSO (Jurkat cells; concentration 10 nmol/L): 103.951% and 104.068%
- Cell viability (%) relative to DMSO (Jurkat cells; concentration 30 nmol/L): 103.682% and 105.344%
- Cell viability (%) relative to DMSO (Jurkat cells; concentration 100 nmol/L): 100.341% and 100.604%
- Cell viability (%) relative to DMSO (Jurkat cells; concentration 300 nmol/L): 97.5611% and 103.704%
- Cell viability (%) relative to DMSO (Jurkat cells; concentration 1000 nmol/L): 98.2177% and 99.0254%
- Cell viability (%) relative to DMSO (Jurkat cells; concentration 3000 nmol/L): 82.942% and 99.8195%
- Cell viability (%) relative to DMSO (Jurkat cells; concentration 10000 nmol/L): 67.1883% and 83.6742% and 92.9267%
- Cell viability (%) relative to DMSO (Jurkat cells; concentration 30000 nmol/L): 49.2545% and 60.9936%
- viability at 72 h, 10 nmol/L [1, 4]: 95.2%
- viability at 72 h, 30 nmol/L [1, 4]: 91.8%
- viability at 72 h, 100 nmol/L [1, 4]: 87.9%
- viability at 72 h, 300 nmol/L ([1]; concentration 300 nmol/L, individual replicates, Supplementary Fig. 7g, read-out: Cell viability (%) relative to DMSO): 89.9%
- viability at 72 h, 1000 nmol/L [1, 4]: 90.3%
- viability at 72 h, 3000 nmol/L [1, 4]: 86.4%
- viability at 72 h, 30000 nmol/L ([1]; concentration 30000 nmol/L, individual replicates, Supplementary Fig. 7g, read-out: Cell viability (%) relative to DMSO): 44.6%
- viability at 72 h, 0.01 µM [1, 5]: 98.6%
- viability at 72 h, 0.03 µM [1, 5]: 96.8%
- viability at 72 h, 0.1 µM [1, 5]: 93.4%
- viability at 72 h, 0.3 µM [1, 5]: 95.1%
- viability at 72 h, 1 µM [1, 5]: 96.9%
- viability at 72 h, 3 µM ([1]; 72 h, 3000 nM, Fig. 4k, read-out: Relative cell viability (%)): 93.5%
- viability at 72 h, 10 µM ([1]; 72 h, 10000 nM, Fig. 4k, read-out: Relative cell viability (%)): 80.3%
- viability at 72 h, 30 µM ([1]; 72 h, 30000 nM, Fig. 4k, read-out: Relative cell viability (%)): 59.8%
- BRD2 protein levels, ligands alone or in combination (BRD2 [2]; 3 μM, 4 h): did not reduce BRD2 protein levels
- BRD2/Vinculin intensity (relative to control group) (BRD2 [3]; Hep G2 cells, pretreated with compound at 30 μM 1 h, then 9 (10 μM, 4 h), single repeats, Fig. 4h): 45.5673 and 52.7494 and 40.9253 and 42.2632 and 42.726
- Value (Mean ± SD): Relative BRD2 levels remaining in Hep G2 cells after treatment with compounds followed by treatment with 9, with DMSO control for normalization (BRD2 [3]; qualitative ICW assay, pretreated at 30 μM 1 h, then 9 (10 μM, 4 h), Supplementary Table 1): 44.85 ± 4.23

Compound: Cc1sc2c(c1C)C(c1ccc(Cl)cc1)=N[C@@H](CC(=O)NCCOCCOCCOCCOCCNC(=O)COc1c(Br)cc(/C=C3\C(=O)Nc4ccc(Br)cc43)cc1Br)c1nnc(C)n1-2 [Compound 9]
- degradation of BRD4 (BRD4): potent degradation activity
- hook effect for BRD4 (BRD4; 6 h, up to 50 µM concentration): almost no hook effect
- GI50 (Jurkat cells): 90 ± 20 nM
- viability at 72 h, 10 nmol/L [1, 4]: 89.8%
- viability at 72 h, 30 nmol/L [1, 4]: 92.8%
- viability at 72 h, 100 nmol/L [1, 4]: 101%
- viability at 72 h, 1000 nmol/L [1, 4]: 13%
- viability at 72 h, 3000 nmol/L [1, 4]: 1.47%
- viability at 72 h, 0.01 µM [1, 5]: 100%
- viability at 72 h, 0.03 µM [1, 5]: 92%
- viability at 72 h, 0.1 µM [1, 5]: 64.6%
- norm BRD4 abundance (BRD4(S)-BFP; [6]): 0.4125
- norm BRD4 abundance (BRD4(S)-BFP; [7]): 0.4289
- norm BRD4 abundance (BRD4(S)-BFP; reporter cells, DCAF11 KO): 0.7503
- degradation of BRD2 (BRD2 [2]): potent degradation activity
- BRD2 levels after washout (BRD2 [2]; 10 μM, 5 h prior to washout): did not recover
- DC50 (BRD2 [2]; 6 h, read-out: half-maximal degradation concentration (DC50) of BRD2): 255 nM
- Dmax (BRD2 [2]; 6 h, read-out: maximum level of degradation (Dmax) of BRD2): 84%
- hook effect for BRD2 (BRD2 [2]; 6 h, up to 50 µM concentration): almost no hook effect
- degradation of BRD3 (BRD3): potent degradation activity
- hook effect for BRD3 (BRD3; 6 h, at 10 µM): strong hook effect
- BRD2 depletion by In-Cell Western (BRD2 [3]; Hep G2 cells, 4 h): dose-dependent depletion of BRD2

Compound: Cc1sc2c(c1C)C(c1ccc(Cl)cc1)=NC(CC(=O)NCCOCCOCCOCCOc1c(Br)cc(C=C3C(=O)Nc4ccc(Br)cc43)cc1Br)c1nnc(C)n1-2 (stereo not shown) [Compound 10]
- degradation of BRD4 (BRD4): potent degradation activity
- GI50 (Jurkat cells): 190 ± 30 nM
- viability at 72 h, 10 nmol/L [1, 4]: 89.7%
- viability at 72 h, 30 nmol/L [1, 4]: 90.1%
- viability at 72 h, 0.1 µM [1, 5]: 70.8%
- viability at 72 h, 0.3 µM [1, 5]: 33.9%
- viability at 72 h, 1 µM [1, 5]: 1.17%
- norm BRD4 abundance (BRD4(S)-BFP; [6]): 0.5147
- norm BRD4 abundance (BRD4(S)-BFP; [7]): 0.5732
- norm BRD4 abundance (BRD4(S)-BFP; reporter cells, DCAF11 KO): 0.8082
- degradation of BRD2 (BRD2 [2]): potent degradation activity
- remaining activity at 3 µM (BRD2 [2]; Jurkat, 6 h, 3 μM, 6 h, Fig. 4j, read-out: BRD2/Vinculin intensity (relative to DMSO control group)): 30.7%
- degradation of BRD3 (BRD3): potent degradation activity
